Source: patent US12221459B2, “Cancer treatment with (2,2-bishydroxymethyl) methylenecyclopropane nucleotides” (MEDIVIR AB, priority 2018, dated 2025)
Where two headings read alike, the source gives them in different places.

Tests used:
[1] = tested on: THP-1 (human acute monocytic leukemia); test: Leukemia cell line activity assay (Cell Counting Kit-8, 5 days), THP-1
Procedure: (§1) Compounds of the invention were evaluated for activity against the leukemia cell lines THP-1, EOL-1 and MV4-11, using the following assay:
(§2) Test compounds were made up to 10 mM stock solution in DMSO
(§3) Leukemia cells (THP-1, EOL-1 and MV4-11) were grown in a cell culture flask 75 cm^2 with approximately 100 ml complete cell medium. The cells were counted using a Scepter-hand held automated cell counter, using 60 μm sensors (Millipore) and suspended in complete cell medium to 2×10^5 cells. 100 μl of the cell suspension were seeded to all wells (2×10^4 cells/well).
(§4) The compounds were tested in twelve concentrations, 10-fold serial dilutions, 50 μM-5×10^−10 μM.
(§5) 100 μl from a compound dilution plate were transferred to the cell assay plate=200 μl/well total volume and incubated for 5 days, at 37° C., 5% CO2 incubator.
(§6) After 5 days, 10l of KIT-8 was added and the culture was incubated for 3-4 hours, at 37° C., 5% CO2 incubator.
(§7) Plate were read in the spectrophotometer at wavelength 450 nm with a reference filter of 620 nm.
(§8) CC50 values are calculated by plotting the degree of inhibition (compared to the vehicle ctrl) against the logarithm of the compound concentration. Result values in the dilution series are fitted to a 4-parameter sigmoidal dose-response curve described by the expression: F(x)=D+(A−D)/(1+(x/C)^B) where: • A=Minimum • B=Slope. • C=Inflection point. The inflection point is defined as the point on the curve where the curvature changes direction or signs. • D=Maximum • F=fraction inhibition

[2] = tested on: MV4-11 cells, human B-myelomonocytic leukemia; test: Leukemia cell line activity assay (Cell Counting Kit-8, 5 days), MV4-11
Procedure: as §1, §2, §3, §4, §5, §6, §7, §8

[3] = Homo sapiens, THP-1, 120 h, read-out: THP-1 CC50, THP-1 cells, 5 days incubation
[4] = Homo sapiens, MV4-11, 120 h, read-out: MV4-11 CC50, MV4-11 cells, 5 days incubation

Row | Structure (SMILES) | CC50 [1, 3] [nM] | CC50 [2, 4] [nM] | CC50 ([1]; read-out: THP-1 CC50, THP-1 cells, 5 days incubation) [nM] | CC50 ([2]; read-out: MV4-11 CC50, MV4-11 cells, 5 days incubation) [nM]
1 | CCCC(CCC)COC(=O)[C@H](C)N[P@](=O)(OCC1(COC(=O)C(C)C)C/C1=C/n1ccc(N)nc1=O)Oc1ccccc1 (single isomer, unassigned) [Example 16-1] | 350 | 190 | – | –
2 | COC(=O)[C@H](CC(C)C)N[P@](=O)(OCC1(COC(=O)C(C)C)C/C1=C/n1cnc2c(=O)[nH]c(N)nc21)Oc1ccccc1 (single isomer, unassigned) [Example 18-2] | 1800 | 800 | – | –
3 | CCC(CC)COC(=O)[C@H](CC(C)C)N[P@](=O)(OCC1(COC(=O)C(C)C)C/C1=C/n1cnc2c(=O)[nH]c(N)nc21)Oc1ccccc1 (single isomer, unassigned) [Example 21-2] | 390 | 510 | – | –
4 | CCC[C@H](C)OC(=O)[C@H](C)N[P@](=O)(OCC1(COC(=O)C(C)C)C/C1=C/n1ccc(N)nc1=O)Oc1ccccc1 (single isomer, unassigned) [Example 28-2] | 880 | 1000 | – | –
5 | CCCC(=O)OCC1(CO[P@@](=O)(N[C@@H](C)C(=O)O[C@@H](C)CCC)Oc2ccccc2)C/C1=C/n1ccc(N)nc1=O (single isomer, unassigned) [Example 29-1] | 710 | 1200 | – | –
6 | CCC(CC)COC(=O)C[C@H](N[P@](=O)(OCC1(COC(=O)C(C)C)C/C1=C/n1cnc2c(=O)[nH]c(N)nc21)Oc1ccccc1)C(=O)OCC(CC)CC (single isomer, unassigned) [Example 35-1] | 290 | 180 | – | –
7 | CCCC(CCC)COC(=O)[C@H](C)N[P@](=O)(OCC1(COC(=O)C(C)C)C/C1=C/n1cc(F)c(N)nc1=O)Oc1ccccc1 (single isomer, unassigned) [Example 39-2] | 600 | 2600 | – | –
8 | CCCC(=O)OCC1(CO[P@@](=O)(N[C@@H](C)C(=O)OCC(CCC)CCC)Oc2ccccc2)C/C1=C/n1ccc(N)nc1=O (single isomer, unassigned) [Example 45-2] | – | – | 2000 | 2200
9 | CCCC(CCC)COC(=O)[C@H](C)N[P@](=O)(OC[C@@]1(COC(C)=O)C/C1=C/n1cnc2c(=O)[nH]c(N)nc21)Oc1ccccc1 [Example 13-1, (S)-2-propylpentyl 2-(((S)-(((S,Z)-1-(acetoxymethyl)-2-((2-amino-6-oxo-1H-purin-9(6H)-yl)methylene)cyclopropyl)methoxy)(phenoxy)phosphoryl)amino)propanoate] | 870 | 1100 | – | –
10 | CCC[C@H](C)OC(=O)[C@H](C)N[P@](=O)(OC[C@@]1(COC(=O)[C@@H](N)C(C)C)C/C1=C/n1cnc2c(=O)[nH]c(N)nc21)Oc1ccccc1 [Example 15-1, (S)-((S,Z)-2-((2-amino-6-oxo-1H-purin-9(6H)-yl)methylene)-1-((((S)-(((S)-1-oxo-1-((S)-pentan-2-yloxy)propan-2-yl)amino)(phenoxy)phosphoryl)oxy)methyl)cyclopropyl)methyl 2-amino-3-methylbutanoate] | 1000 | – | – | –
11 | CCC(CC)COC(=O)[C@H](Cc1ccccc1)N[P@](=O)(OCC1(COC(=O)[C@@H](N)C(C)C)C/C1=C/n1cnc2c(=O)[nH]c(N)nc21)Oc1ccccc1 (stereo partly drawn) [Example 23, ((Z)-2-((2-amino-6-oxo-1,6-dihydro-9H-purin-9-yl)methylene)-1-((((S)-(((S)-1-(2-ethylbutoxy)-1-oxo-3-phenylpropan-2-yl)amino)(phenoxy)phosphoryl)oxy)methyl)cyclopropyl)methyl L-valinate] | 2400 | 850 | – | –
12 | CCCC(=O)OCC1(CO[P@@](=O)(N[C@@H](C)C(=O)OCC(CCC)CCC)Oc2ccccc2)C/C1=C/n1cc(F)c(N)nc1=O (stereo partly drawn) [Example 40, ((Z)-2-((4-amino-5-fluoro-2-oxopyrimidin-1(2H)-yl)methylene)-1-((((S)-(((S)-1-oxo-1-((2-propylpentyl)oxy)propan-2-yl)amino)(phenoxy)phosphoryl)oxy)methyl)cyclopropyl)methyl butyrate] | – | 3100 | – | –
